How the values were obtained:
Assay type in all cases: functional
Conditions in all cases: 336 h
[1] = system: Mycobacterium tuberculosis; experiment: Antitubercular activity against multi-drug resistant Mycobacterium tuberculosis K25b00MR after 14 days in presence of middlebrook 7H9/BSA medium by eleven fold serial dilution method
[2] = system: Mycobacterium tuberculosis; experiment: Antitubercular activity against multi-drug resistant Mycobacterium tuberculosis K22b00MR after 14 days in presence of middlebrook 7H9/BSA medium by eleven fold serial dilution method
[3] = system: Mycobacterium tuberculosis; experiment: Antitubercular activity against multi-drug resistant Mycobacterium tuberculosis K29b00MR after 14 days in presence of middlebrook 7H9/BSA medium by eleven fold serial dilution method
[4] = system: Mycobacterium tuberculosis; experiment: Antitubercular activity against multi-drug resistant Mycobacterium tuberculosis K26b00MR after 14 days in presence of middlebrook 7H9/BSA medium by eleven fold serial dilution method

Row | SMILES | MIC [1] [µg/mL] | MIC [2] [µg/mL] | MIC [3] [µg/mL] | MIC [4] [µg/mL]
1 | C[C@@H](NC(=O)N1C(=O)C[C@@H]1Sc1ccc(F)cc1F)c1ccccc1 | 12.5 | 12.5 | 12.5 | 25
2 | C[C@H](NC(=O)N1C(=O)C[C@H]1Sc1ccc(F)cc1F)c1ccccc1 | 12.5 to 25 | 25 | 25 | 25 to 50
3 | C[C@H](NC(=O)N1C(=O)C[C@@H]1Sc1ccc(C(F)(F)F)cc1)c1ccccc1 | 12.5 to 25 | 12.5 | 12.5 | 12.5
4 | C[C@@H](NC(=O)N1C(=O)C[C@H]1Sc1ccc(F)cc1F)c1ccccc1 | 12.5 | 12.5 | 12.5 | 12.5 to 25
5 | O=C1CC(Sc2ccc(C(F)(F)F)cc2)N1C(=O)NCc1ccccc1 (racemic) | 25 | 12.5 | 25 | 12.5
6 | NNC(=O)c1ccncc1 [ISONIAZID] | 1.3 | 0.6 | ≥ 1 | > 1

— ChEMBL document CHEMBL4304800, “C4-Phenylthio β-lactams: Effect of the chirality of the β-lactam ring on antimicrobial activity” (2019)
